Patent publication US20250186466A1, “ZLT-007 AND METHODS OF TREATING DIABETIC NEUROPATHY” (IIere Therapeutics LLC, priority 2022, published 2025)

How the values were obtained:
[1] = test system: subjects with pain associated with diabetic neuropathy; test: 12-week clinical study, Daily Pain Numeric Rating Scale (NRS); assay type: in vivo, human
Protocol: (§1) To determine the effect of ZLT-L-007 in subjects with pain associated with diabetic neuropathy, an observational 12-week clinical study to evaluate the efficacy, safety and tolerability of ZLT-L-007 versus Pregabalin (300 Mg/Day) was conducted.
Primary endpoints of the study included: 1. Recording Daily Pain Numeric Rating Scale (NRS) at Baseline, Day 30, Day 60, and Day 90.
Three groups were used to evaluate the effect of ZLT-L-007 in subjects with pain associated with diabetic neuropathy: Group 1 (Pregabalin), Group 2 (ZLT-L-007 pharmaceutical composition+terpene composition), and Group 3 (Pregabalin and ZLT-L-007 pharmaceutical composition+terpene composition). More detailed information regarding each group's treatment is provided below.
Group 3 subjects were already taking pregabalin/Lyrica® at the prescribed dose recommended by their doctor. Subjects then received one capsule by mouth twice daily of the ZLT-L-007 pharmaceutical composition. Participants were also given one capsule by mouth twice daily of a terpene composition that comprised 0.25 mg of myrcene and 0.25 mg of linalool.
Group 3 was administered one capsule by mouth twice daily of the ZLT-L-007 pharmaceutical composition.. Participants were also given one capsule by mouth twice daily of a terpene composition that comprised 0.25 mg of myrcene and 0.25 mg of linalool.

[2] = test system: subjects with pain associated with diabetic neuropathy; test: 12-week clinical study, pain Visual Analog Scale (VAS); assay type: in vivo, human; conditions: Day 30, Day 60, Day 90
Protocol: as §1

CC(C)C[C@H](CN)CC(=O)O [Pregabalin]
NRS Severity, median percent change from baseline ([1]; 30-day follow-up, ZLT-L-007 one capsule by mouth twice daily plus terpene capsule): −33.33%
NRS Severity, median percent change from baseline ([1]; 60-day follow-up): −20.00%
NRS Severity, median percent change from baseline ([1]; 90-day follow-up): −35.00%
NRS Severity, median percent change from baseline, range ([1]; all follow-up periods): −20.00% to −35.00%
VAS pain severity, median percent change from baseline, range [2]: −33.33% to −35.00%
